Source: PMC6199744, “Development of Chemical Proteomics for the Folateome and Analysis of the Kinetoplastid Folateome” (ACS Infectious Diseases, 2018)
Where two headings read alike, the source gives them in different places.

What was measured:
Type in all cases: binding
[1] = target: T1, HeLa cell extract proteins (Homo sapiens, UniProt Q9UHI6)
T1 construct: endogenous in cells; host or cells: HeLa cell extract
T1 sequence (Q9UHI6 1-824): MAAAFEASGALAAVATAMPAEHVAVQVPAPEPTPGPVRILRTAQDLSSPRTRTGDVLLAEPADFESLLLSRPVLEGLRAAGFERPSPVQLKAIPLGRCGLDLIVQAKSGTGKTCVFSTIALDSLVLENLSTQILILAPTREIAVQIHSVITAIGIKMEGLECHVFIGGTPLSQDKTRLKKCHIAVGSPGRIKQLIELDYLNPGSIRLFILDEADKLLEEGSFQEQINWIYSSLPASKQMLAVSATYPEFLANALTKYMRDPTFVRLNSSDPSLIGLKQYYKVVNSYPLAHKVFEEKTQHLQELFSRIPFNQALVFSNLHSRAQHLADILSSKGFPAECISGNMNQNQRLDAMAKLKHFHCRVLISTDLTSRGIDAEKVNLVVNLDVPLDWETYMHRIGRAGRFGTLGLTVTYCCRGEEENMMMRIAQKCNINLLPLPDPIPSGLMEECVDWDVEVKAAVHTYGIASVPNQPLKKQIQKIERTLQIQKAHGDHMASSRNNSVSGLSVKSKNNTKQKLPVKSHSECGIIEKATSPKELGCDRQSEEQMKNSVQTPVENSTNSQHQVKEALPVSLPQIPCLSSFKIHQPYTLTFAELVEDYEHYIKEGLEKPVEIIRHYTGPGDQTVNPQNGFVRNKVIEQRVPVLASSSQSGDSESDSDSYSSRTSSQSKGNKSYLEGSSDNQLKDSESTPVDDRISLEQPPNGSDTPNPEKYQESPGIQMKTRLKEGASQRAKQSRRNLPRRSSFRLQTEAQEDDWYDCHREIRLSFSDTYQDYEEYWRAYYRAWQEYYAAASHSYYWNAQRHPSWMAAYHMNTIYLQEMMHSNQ

[2] = target: T2, HeLa cell extract proteins (Homo sapiens, UniProt P41091)
T2 construct: endogenous in cells; host or cells: HeLa cell extract

[3] = target: T3, HeLa cell extract proteins (Homo sapiens, UniProt P12004)
T3 construct: endogenous in cells; host or cells: HeLa cell extract

[4] = target: T4, HeLa cell extract proteins (Homo sapiens, UniProt Q96KA5)
T4 construct: endogenous in cells; host or cells: HeLa cell extract
T4 sequence (Q96KA5 1-538): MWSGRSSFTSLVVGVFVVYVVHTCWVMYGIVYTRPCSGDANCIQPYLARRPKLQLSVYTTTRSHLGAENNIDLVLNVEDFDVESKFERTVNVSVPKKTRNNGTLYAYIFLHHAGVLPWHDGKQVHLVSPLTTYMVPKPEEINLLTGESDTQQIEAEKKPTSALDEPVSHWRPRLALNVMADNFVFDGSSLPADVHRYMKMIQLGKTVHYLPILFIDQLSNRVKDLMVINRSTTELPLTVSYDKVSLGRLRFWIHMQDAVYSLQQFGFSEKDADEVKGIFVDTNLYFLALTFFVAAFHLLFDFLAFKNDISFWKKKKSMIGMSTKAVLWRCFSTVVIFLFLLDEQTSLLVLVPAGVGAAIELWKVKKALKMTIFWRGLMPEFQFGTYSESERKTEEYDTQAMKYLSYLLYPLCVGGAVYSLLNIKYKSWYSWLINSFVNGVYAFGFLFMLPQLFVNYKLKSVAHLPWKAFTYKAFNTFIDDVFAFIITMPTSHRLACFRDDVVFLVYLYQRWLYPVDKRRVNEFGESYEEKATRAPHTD

[5] = target: T5, HeLa cell extract proteins (Homo sapiens, UniProt P08579)
T5 construct: endogenous in cells; host or cells: HeLa cell extract

[6] = target: T6, HeLa cell extract proteins (Homo sapiens, UniProt Q9P2K8)
T6 construct: endogenous in cells; host or cells: HeLa cell extract

[7] = target: T7, HeLa cell extract proteins (Homo sapiens, UniProt O14980)
T7 construct: endogenous in cells; host or cells: HeLa cell extract

[8] = target: T8, HeLa cell extract proteins (Homo sapiens, UniProt P51149)
T8 construct: endogenous in cells; host or cells: HeLa cell extract

[9] = target: T9, HeLa cell extract proteins (Homo sapiens, UniProt Q99436)
T9 construct: endogenous in cells; host or cells: HeLa cell extract
T9 sequence (Q99436 44-277): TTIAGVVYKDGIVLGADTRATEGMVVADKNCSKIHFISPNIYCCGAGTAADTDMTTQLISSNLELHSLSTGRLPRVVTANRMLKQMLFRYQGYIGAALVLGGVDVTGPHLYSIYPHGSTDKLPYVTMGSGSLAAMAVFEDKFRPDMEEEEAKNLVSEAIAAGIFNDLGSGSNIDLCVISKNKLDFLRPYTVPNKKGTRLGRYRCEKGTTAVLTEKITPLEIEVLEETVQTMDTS

[10] = target: T10, HeLa cell extract proteins (Homo sapiens, UniProt P23526)
T10 construct: endogenous in cells; host or cells: HeLa cell extract

[11] = target: T11, HeLa cell extract proteins (Homo sapiens, UniProt P17844)
T11 construct: endogenous in cells; host or cells: HeLa cell extract

[12] = target: T12, HeLa cell extract proteins (Homo sapiens, UniProt P51858)
T12 construct: endogenous in cells; host or cells: HeLa cell extract

[13] = HeLa, protein PSMB7 ([…] BETA TYPE 7 PRECURSOR)
[14] = HeLa, protein DDX5 (PROBABLE ATP-DEPENDENT RNA HELICASE DDX5)

T3 sequence (P12004 whole entry): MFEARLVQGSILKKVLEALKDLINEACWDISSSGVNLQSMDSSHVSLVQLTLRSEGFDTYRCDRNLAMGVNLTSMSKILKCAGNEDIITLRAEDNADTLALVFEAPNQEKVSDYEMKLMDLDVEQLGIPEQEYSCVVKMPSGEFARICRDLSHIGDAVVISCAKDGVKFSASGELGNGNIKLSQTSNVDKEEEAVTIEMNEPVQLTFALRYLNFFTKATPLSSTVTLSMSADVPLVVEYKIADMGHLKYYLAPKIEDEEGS
T2 sequence (P41091 whole entry): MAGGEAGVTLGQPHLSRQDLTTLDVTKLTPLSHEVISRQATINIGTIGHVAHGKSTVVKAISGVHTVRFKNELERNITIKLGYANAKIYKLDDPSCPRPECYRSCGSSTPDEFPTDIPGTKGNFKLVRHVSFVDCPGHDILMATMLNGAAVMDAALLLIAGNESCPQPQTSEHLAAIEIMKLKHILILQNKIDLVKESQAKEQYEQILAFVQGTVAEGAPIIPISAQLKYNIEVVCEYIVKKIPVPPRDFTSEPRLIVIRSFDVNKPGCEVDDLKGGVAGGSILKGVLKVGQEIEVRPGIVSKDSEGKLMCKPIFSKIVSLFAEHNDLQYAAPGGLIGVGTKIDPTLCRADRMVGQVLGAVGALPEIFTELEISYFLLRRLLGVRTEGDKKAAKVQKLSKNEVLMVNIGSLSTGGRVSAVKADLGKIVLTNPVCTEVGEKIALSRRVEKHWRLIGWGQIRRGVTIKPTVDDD
T12 sequence (P51858 whole entry): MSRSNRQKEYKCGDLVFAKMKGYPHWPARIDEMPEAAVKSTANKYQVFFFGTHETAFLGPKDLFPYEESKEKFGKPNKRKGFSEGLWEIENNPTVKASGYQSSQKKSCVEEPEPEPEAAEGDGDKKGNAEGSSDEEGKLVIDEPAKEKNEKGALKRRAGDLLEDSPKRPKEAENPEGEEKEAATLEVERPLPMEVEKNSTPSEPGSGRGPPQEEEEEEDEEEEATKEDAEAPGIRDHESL
T5 sequence (P08579 whole entry): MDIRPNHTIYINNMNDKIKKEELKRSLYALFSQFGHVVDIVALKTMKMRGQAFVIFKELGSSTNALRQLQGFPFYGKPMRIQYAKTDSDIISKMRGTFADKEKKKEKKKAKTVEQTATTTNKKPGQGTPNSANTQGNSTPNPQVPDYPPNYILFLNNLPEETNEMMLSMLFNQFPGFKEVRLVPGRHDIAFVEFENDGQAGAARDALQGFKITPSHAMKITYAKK
T8 sequence (P51149 whole entry): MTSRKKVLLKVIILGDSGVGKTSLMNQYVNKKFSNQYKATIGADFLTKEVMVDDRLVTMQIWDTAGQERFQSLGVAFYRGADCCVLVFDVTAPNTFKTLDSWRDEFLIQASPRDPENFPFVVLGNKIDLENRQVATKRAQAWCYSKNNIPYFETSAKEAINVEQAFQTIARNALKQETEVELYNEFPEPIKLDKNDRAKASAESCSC
T11 sequence (P17844 whole entry): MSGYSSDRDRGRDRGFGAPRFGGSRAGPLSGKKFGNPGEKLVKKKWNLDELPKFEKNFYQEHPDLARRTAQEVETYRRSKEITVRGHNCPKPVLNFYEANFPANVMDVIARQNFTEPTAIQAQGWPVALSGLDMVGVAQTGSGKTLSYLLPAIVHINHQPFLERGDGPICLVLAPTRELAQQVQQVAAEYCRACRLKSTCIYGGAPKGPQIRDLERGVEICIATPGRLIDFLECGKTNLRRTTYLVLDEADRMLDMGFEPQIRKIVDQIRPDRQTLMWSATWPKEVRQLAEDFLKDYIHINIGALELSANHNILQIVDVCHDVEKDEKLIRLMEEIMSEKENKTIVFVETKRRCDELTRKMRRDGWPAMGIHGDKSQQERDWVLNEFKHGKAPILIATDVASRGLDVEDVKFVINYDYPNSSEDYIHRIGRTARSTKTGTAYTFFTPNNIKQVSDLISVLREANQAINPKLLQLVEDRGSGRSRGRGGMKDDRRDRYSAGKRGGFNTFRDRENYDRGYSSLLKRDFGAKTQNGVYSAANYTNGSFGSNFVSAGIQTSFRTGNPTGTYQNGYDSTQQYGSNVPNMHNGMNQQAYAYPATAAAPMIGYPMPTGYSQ
T7 sequence (O14980 whole entry): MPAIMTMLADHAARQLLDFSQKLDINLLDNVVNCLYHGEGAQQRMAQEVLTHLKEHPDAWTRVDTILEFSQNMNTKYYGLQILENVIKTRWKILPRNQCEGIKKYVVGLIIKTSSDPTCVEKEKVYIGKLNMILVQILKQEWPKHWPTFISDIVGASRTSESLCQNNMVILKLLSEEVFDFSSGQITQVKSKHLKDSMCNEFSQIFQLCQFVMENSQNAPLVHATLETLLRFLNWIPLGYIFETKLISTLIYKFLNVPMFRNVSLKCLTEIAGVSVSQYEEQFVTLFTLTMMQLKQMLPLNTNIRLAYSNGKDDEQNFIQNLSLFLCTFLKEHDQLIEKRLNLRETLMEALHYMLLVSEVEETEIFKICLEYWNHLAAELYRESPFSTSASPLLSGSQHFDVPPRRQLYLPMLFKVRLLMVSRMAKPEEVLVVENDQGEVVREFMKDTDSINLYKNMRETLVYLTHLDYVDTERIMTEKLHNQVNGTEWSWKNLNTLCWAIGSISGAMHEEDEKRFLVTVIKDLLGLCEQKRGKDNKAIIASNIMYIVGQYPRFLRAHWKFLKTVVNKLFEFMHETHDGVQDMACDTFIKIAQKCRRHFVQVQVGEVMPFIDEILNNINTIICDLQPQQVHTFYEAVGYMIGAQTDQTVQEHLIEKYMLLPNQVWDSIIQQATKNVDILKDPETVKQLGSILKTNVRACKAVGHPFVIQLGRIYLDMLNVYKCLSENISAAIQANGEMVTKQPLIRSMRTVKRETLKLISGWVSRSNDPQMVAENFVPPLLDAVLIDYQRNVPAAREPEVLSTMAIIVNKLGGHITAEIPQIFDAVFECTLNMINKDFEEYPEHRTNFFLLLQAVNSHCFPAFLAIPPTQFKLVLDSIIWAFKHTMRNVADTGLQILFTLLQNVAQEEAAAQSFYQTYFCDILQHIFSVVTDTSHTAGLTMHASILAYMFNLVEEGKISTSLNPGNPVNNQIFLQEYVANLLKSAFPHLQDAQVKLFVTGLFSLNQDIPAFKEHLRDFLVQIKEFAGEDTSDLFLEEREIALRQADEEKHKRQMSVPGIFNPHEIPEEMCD
T10 sequence (P23526 whole entry): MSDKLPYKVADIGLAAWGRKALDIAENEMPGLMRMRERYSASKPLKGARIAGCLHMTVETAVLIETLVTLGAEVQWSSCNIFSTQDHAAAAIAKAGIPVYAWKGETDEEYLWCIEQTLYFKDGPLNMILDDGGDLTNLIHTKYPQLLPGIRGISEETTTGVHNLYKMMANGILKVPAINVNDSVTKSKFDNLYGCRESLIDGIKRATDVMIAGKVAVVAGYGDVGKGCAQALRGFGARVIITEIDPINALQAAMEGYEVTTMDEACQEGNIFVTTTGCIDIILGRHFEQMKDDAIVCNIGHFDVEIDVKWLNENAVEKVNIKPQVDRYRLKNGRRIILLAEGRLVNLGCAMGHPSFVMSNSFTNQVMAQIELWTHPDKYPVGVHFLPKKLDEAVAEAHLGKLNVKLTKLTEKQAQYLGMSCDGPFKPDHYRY

Row | Compound | fold changes relative to vehicle control ([1]; HeLa, protein DDX20) | fold changes relative to vehicle control ([2]; protein EIF2S3, HeLa) | fold changes relative to vehicle control ([3]; HeLa, captured protein PCNA) | fold changes relative to vehicle control ([4]; protein CLPTM1L, HeLa) | fold changes relative to vehicle control ([5]; HeLa, protein SNRPB2) | fold changes relative to vehicle control ([7]; HeLa, captured protein XPO1) | fold changes relative to vehicle control ([8]; protein RAB7A, HeLa) | fold changes relative to vehicle control [9, 13] | fold changes relative to vehicle control ([10]; HeLa, protein AHCY) | fold changes relative to vehicle control [11, 14] | fold changes relative to vehicle control ([12]; HeLa, protein HDGF) | fold changes relative to vehicle control [6] | fold changes relative to vehicle control ([1]; captured protein DDX20, HeLa) | fold changes relative to vehicle control ([3]; protein PCNA, HeLa) | fold changes relative to vehicle control ([4]; captured protein CLPTM1L, HeLa) | fold changes relative to vehicle control ([6]; captured protein EIF2AK4, HeLa) | fold changes relative to vehicle control ([7]; HeLa, protein XPO1) | fold changes relative to vehicle control ([9]; protein PSMB7, HeLa) | fold changes relative to vehicle control ([10]; protein AHCY, HeLa) | fold changes relative to vehicle control ([11]; HeLa, protein DDX5) | further results
1 | Nc1nc2c(c(=O)[nH]1)N(C=O)C(CNc1ccc(C(=O)N[C@@H](CCC(=O)O)C(=O)O)cc1)CN2 (stereo partly drawn) [LEU, leucovorin] | 0.93 | 0.81 | 1.25 | 0.77 | 1 | 0.92 | 0.99 | 1.19 | 0.98 | 0.88 | 1.06 |  |  |  |  |  |  |  |  |  | fold changes relative to vehicle control ([6]; HeLa, protein EIF2AK4 (ISOFORM 1 OF EUKARYOTIC TRANSLATION INITIATION FACTOR 2-ALPHA KINASE 4)): 0.83
2 | Nc1nc2[nH]cc(CCc3ccc(C(=O)N[C@@H](CCC(=O)O)C(=O)O)cc3)c2c(=O)[nH]1 [PTX, pemetrexed] |  |  |  |  |  |  |  |  |  |  |  | 0.65 |  |  |  |  |  |  |  |  | fold changes relative to vehicle control [1]: 0.97; fold changes relative to vehicle control [2]: 0.87; fold changes relative to vehicle control [3]: 1.29; fold changes relative to vehicle control [4]: 0.91; fold changes relative to vehicle control [5]: 0.98; fold changes relative to vehicle control [7]: 0.86; fold changes relative to vehicle control [8]: 1.12; fold changes relative to vehicle control [9]: 1.6; fold changes relative to vehicle control [10]: 0.98; fold changes relative to vehicle control [11]: 0.82; fold changes relative to vehicle control [12]: 1.21
3 | CCCCCCOc1ccc(Cc2cnc(N)nc2N)cc1 [compound 1] |  | 1.07 |  |  | 1.22 |  | 1.21 |  |  |  |  |  | 0.89 | 1.18 | 0.84 | 0.97 | 0.99 | 1.17 | 1.01 | 0.92 | fold changes relative to vehicle control ([12]; protein HDGF, HeLa): 1.26
4 | CCCCCCOc1cccc(Cc2cnc(N)nc2N)c1 [compound 2] |  | 1.13 |  |  | 1.43 |  | 1.58 |  |  |  |  |  | 1 | 1.65 | 1.05 | 0.96 | 1.09 | 1.28 | 1.26 | 1.12 | fold changes relative to vehicle control ([12]; protein HDGF, HeLa): 2.45
5 | Nc1nc2cccc(-c3ccccc3)c2n1Cc1ccc(Cl)c(Cl)c1 [compound 3] |  | 1.06 |  |  | 0.76 |  | 1.12 |  |  |  |  |  | 0.92 | 0.77 | 1.14 | 1.02 | 1.03 | 0.99 | 0.86 | 0.9 | fold changes relative to vehicle control ([12]; protein HDGF, HeLa): 0.9
6 | NCCOCCOCC(=O)Nc1nc2ncc(CNc3ccc(C(=O)NC(CCC(=O)O)C(=O)O)cc3)nc2c(=O)[nH]1 (stereo not drawn) [compound 6] | 0.98 | 1.07 | 1.47 | 1.01 | 0.93 | 0.93 | 1.31 | 2.16 | 1.13 | 1.15 | 1.31 | 1.02 |  |  |  |  |  |  |  |  | 
7 | NCCCNc1ccc(C(=O)NC(CCC(=O)O)C(=O)O)cc1 (stereo not drawn) [compound 7] | 0.94 | 1 | 1.02 | 0.9 | 0.77 | 0.94 | 1.05 | 1.08 | 0.99 | 0.93 | 0.97 | 1.02 |  |  |  |  |  |  |  |  | 
